Experimental data reported in PubChem BioAssay AID1963977 (Molecular Pharmacology Branch, DTP, NCI, 2024).
Values joined by “and” are separate entries in the source; they are usually repeats but may differ in a detail not shown here. Equal values may be shown once.

Test system: 624824-186-R-J3-PDC multicell spheroids, viability
Assay: Anticancer human tumor 624824-186-R-J3-PDC patient-derived colon adenocarcinoma cell line growth inhibition [PI3K]
Settings: for viability, T/C: stronger effect = lower value
Method in brief: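 Complex 3D spheroids (cancer cells + endothelial HUVEC + mesenchymal stem cells); drug pairs of targeted agent x inavolisib/alpelisib/duvelisib/copanlisib; half-log series from ~Cmax, max 10 microM if Cmax unknown; endpoint viability.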
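Note: spheroids exposed to agents for seven days before luminescence read.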
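Throughout, for viability, T/C: luminescent signal used as a stand-in for spheroid viability; percent viability relative to DMSO vehicle control wells taken as 100%.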

Q: `CC(C)n1nc(-c2ccc3oc(N)nc3c2)c2c(N)ncnc21` was tested. Which viability, T/C (compound 0.000316 µM) did it give?
A: Its viability, T/C is 103% [middle of 4 runs].

Q: And the viability, T/C (compound 0.001 µM)?
A: Its viability, T/C is 104% and 97.2% and 101% (2×).

Q: And the viability, T/C (compound 0.00316 µM)?
A: The viability, T/C was 106% [middle of 4 runs].

Q: And the viability, T/C (compound 0.01 µM)?
A: Its viability, T/C is 108% [middle of 4 runs].

Q: And the viability, T/C (compound 0.0316 µM)?
A: Its viability, T/C is 99.4% [middle of 4 runs].

Q: And the viability, T/C (compound 0.1 µM)?
A: The viability, T/C was 64.2% [middle of 4 runs].

Q: And the IC50 (curve of compound)?
A: The IC50 was over 0.1 µM.

Q: For `CCCS(=O)(=O)Nc1ccc(F)c(C(=O)c2c[nH]c3ncc(-c4ccc(Cl)cc4)cc23)c1F` + COc1c(OCCCN2CCOCC2)ccc2c3n(c(=NC(=O)c4cnc(N)nc4)nc12)CCN3, which IC50 (curve of first compound, second compound 0.00316 µM) is on record?
A: The IC50 was 5.31 µM.

Q: And the IC50 (curve of first compound, second compound 0.01 µM)?
A: Its IC50 is 3.71 µM.

Q: What about the IC50 (curve of first compound, second compound 0.0316 µM) of the same compound?
A: Its IC50 is 1.87 µM.

Q: What about the IC50 (curve of first compound, second compound 0.1 µM) of the same compound?
A: Its IC50 is 0.331 µM.

Q: And the IC50 (curve of first compound, second compound 0.316 µM)?
A: The IC50 was under 0.0316 µM.

Q: What about the IC50 (curve of first compound, second compound 1 µM) of the same compound?
A: The IC50 was under 0.0316 µM.

Q: And the viability, T/C (second compound 0.00316 µM, first compound 0.0316 µM)?
A: Its viability, T/C is 87.3%.

Q: What about the viability, T/C (second compound 0.00316 µM, first compound 0.1 µM) of the same compound?
A: The viability, T/C was 103%.

Q: What about the viability, T/C (second compound 0.00316 µM, first compound 0.316 µM) of the same compound?
A: The viability, T/C was 114%.

Q: And the viability, T/C (second compound 0.00316 µM, first compound 1 µM)?
A: The viability, T/C was 96.9%.

Q: And the viability, T/C (second compound 0.00316 µM, first compound 3.16 µM)?
A: Its viability, T/C is 82.5%.

Q: And the viability, T/C (second compound 0.00316 µM, first compound 10 µM)?
A: Its viability, T/C is 10.3%.

Q: What about the viability, T/C (second compound 0.01 µM, first compound 0.0316 µM) of the same compound?
A: The viability, T/C was 102%.

Q: What about the viability, T/C (second compound 0.01 µM, first compound 0.1 µM) of the same compound?
A: Its viability, T/C is 102%.

Q: And the viability, T/C (second compound 0.01 µM, first compound 0.316 µM)?
A: The viability, T/C was 84.8%.

Q: And the viability, T/C (second compound 0.01 µM, first compound 1 µM)?
A: Its viability, T/C is 74.8%.

Q: And the viability, T/C (second compound 0.01 µM, first compound 3.16 µM)?
A: The viability, T/C was 61.5%.

Q: And the viability, T/C (second compound 0.01 µM, first compound 10 µM)?
A: The viability, T/C was 13.6%.

Q: What about the viability, T/C (second compound 0.0316 µM, first compound 0.0316 µM) of the same compound?
A: The viability, T/C was 95.7%.

Q: And the viability, T/C (second compound 0.0316 µM, first compound 0.1 µM)?
A: The viability, T/C was 86.3%.

Q: And the viability, T/C (second compound 0.0316 µM, first compound 0.316 µM)?
A: Its viability, T/C is 65.4%.

Q: What about the viability, T/C (second compound 0.0316 µM, first compound 1 µM) of the same compound?
A: The viability, T/C was 67%.

Q: What about the viability, T/C (second compound 0.0316 µM, first compound 3.16 µM) of the same compound?
A: Its viability, T/C is 42.6%.

Q: What about the viability, T/C (second compound 0.0316 µM, first compound 10 µM) of the same compound?
A: Its viability, T/C is 16.1%.

Q: What about the viability, T/C (second compound 0.1 µM, first compound 0.0316 µM) of the same compound?
A: The viability, T/C was 74.7%.

Q: What about the viability, T/C (second compound 0.1 µM, first compound 0.1 µM) of the same compound?
A: Its viability, T/C is 66%.

Q: And the viability, T/C (second compound 0.1 µM, first compound 0.316 µM)?
A: The viability, T/C was 46.4%.

Q: And the viability, T/C (second compound 0.1 µM, first compound 1 µM)?
A: The viability, T/C was 37.7%.

Q: What about the viability, T/C (second compound 0.1 µM, first compound 3.16 µM) of the same compound?
A: Its viability, T/C is 27.5%.

Q: And the viability, T/C (second compound 0.1 µM, first compound 10 µM)?
A: Its viability, T/C is 9.08%.

Q: What about the viability, T/C (second compound 0.316 µM, first compound 0.0316 µM) of the same compound?
A: The viability, T/C was 44%.

Q: What about the viability, T/C (second compound 0.316 µM, first compound 0.1 µM) of the same compound?
A: Its viability, T/C is 37.5%.

Q: And the viability, T/C (second compound 0.316 µM, first compound 0.316 µM)?
A: The viability, T/C was 31.8%.

Q: And the viability, T/C (second compound 0.316 µM, first compound 1 µM)?
A: Its viability, T/C is 24.1%.

Q: And the viability, T/C (second compound 0.316 µM, first compound 3.16 µM)?
A: The viability, T/C was 17.2%.

Q: And the viability, T/C (second compound 0.316 µM, first compound 10 µM)?
A: Its viability, T/C is 8.93%.

Q: What about the viability, T/C (second compound 1 µM, first compound 0.0316 µM) of the same compound?
A: The viability, T/C was 29%.

Q: What about the viability, T/C (second compound 1 µM, first compound 0.1 µM) of the same compound?
A: Its viability, T/C is 27.1%.

Q: And the viability, T/C (second compound 1 µM, first compound 0.316 µM)?
A: Its viability, T/C is 20.4%.

Q: And the viability, T/C (second compound 1 µM, first compound 1 µM)?
A: Its viability, T/C is 17.2%.

Q: What about the viability, T/C (second compound 1 µM, first compound 3.16 µM) of the same compound?
A: Its viability, T/C is 12.5%.

Q: And the viability, T/C (second compound 1 µM, first compound 10 µM)?
A: The viability, T/C was 6.57%.
